Assay results taken from ChEMBL document CHEMBL1123226, “Methotrexate analogues. 29. Effect of gamma-aminobutyric acid spacers between the pteroyl and glutamate moieties on enzyme binding and cell growth inhibition” (J Med Chem, 1986).
pIC50, pKi: −log10 of the molar value.

Tests used:
L1210 = test: Compound was tested for its ability to inhibit L1210 cell growth; assay type: functional, cell-based; conditions: Mus musculus
[1] = molecular target: T1, Dihydrofolate reductase (Mus musculus) (UniProt P00375); conditions: L1210
T1 sequence (whole entry): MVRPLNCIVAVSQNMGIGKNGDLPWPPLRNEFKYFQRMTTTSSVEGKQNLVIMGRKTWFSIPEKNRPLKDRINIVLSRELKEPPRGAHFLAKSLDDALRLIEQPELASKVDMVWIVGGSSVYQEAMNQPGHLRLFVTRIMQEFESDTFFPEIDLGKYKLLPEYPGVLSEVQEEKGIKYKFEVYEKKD
Description: Compound was tested for its ability to inhibit dihydrofolate reductase purified from murine L1210 cells, activity expressed as IC50/[E]

Dihydrofolate reductase = molecular target: T2, Dihydrofolate reductase (Mus musculus, UniProt P00375); test: biochemical
T2 sequence (P00375 whole entry): T1 sequence (whole entry)
Description: Compound was tested for its ability to inhibit dihydrofolate reductase purified from murine L1210 cells

Thymidylate synthase = molecular target: T3, Thymidylate synthase (Lactobacillus casei, UniProt P00469); test: Compound was tested for its ability to inhibit thymidylate synthetase isolated from MTX-resistant Lactobacillus casei; parameters: species or system Lacticaseibacillus casei
T3 sequence (P00469 whole entry): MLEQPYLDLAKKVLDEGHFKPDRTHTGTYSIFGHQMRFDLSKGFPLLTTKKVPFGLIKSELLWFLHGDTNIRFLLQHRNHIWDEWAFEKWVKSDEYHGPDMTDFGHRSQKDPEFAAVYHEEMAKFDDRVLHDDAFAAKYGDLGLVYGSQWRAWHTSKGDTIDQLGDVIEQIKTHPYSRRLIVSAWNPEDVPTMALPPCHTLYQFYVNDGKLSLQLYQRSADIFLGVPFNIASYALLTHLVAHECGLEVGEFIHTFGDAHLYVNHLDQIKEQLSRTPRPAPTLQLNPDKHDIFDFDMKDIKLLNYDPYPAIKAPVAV

Structure (SMILES) | pIC50 (L1210) | IC50/[E] [1] | pIC50 (Dihydrofolate reductase) | pKi (Thymidylate synthase)
CN(Cc1cnc2nc(N)nc(N)c2n1)c1ccc(C(=O)N[C@@H](CCC(=O)O)C(=O)O)cc1 [METHOTREXATE] | 7.70 |  |  | 
CN(Cc1cnc2nc(N)nc(N)c2n1)c1ccc(C(=O)NCCCC(=O)NCCCC(=O)NCCCC(=O)NCCCC(=O)NC(CCC(=O)O)C(=O)O)cc1 (stereo unspecified) | < 4.00 | 7.7 | 6.27 | 6.72
CN(Cc1cnc2nc(N)nc(N)c2n1)c1ccc(C(=O)NCCCC(=O)NCCCC(=O)NCCCC(=O)NCCCC(=O)NCCCC(=O)NC(CCC(=O)O)C(=O)O)cc1 (stereo unspecified) | < 4.00 | 12 | 6.08 | 6.76

Now from value to molecule:

pIC50 (L1210) | IC50/[E] [1] | pIC50 (Dihydrofolate reductase) | pKi (Thymidylate synthase) | Structure (SMILES)
5.25 | 1.3 | 7.05 | 6.69 | CN(Cc1cnc2nc(N)nc(N)c2n1)c1ccc(C(=O)NCCCC(=O)NCCCC(=O)NC(CCC(=O)O)C(=O)O)cc1 (stereo unspecified)
6.28 | 0.82 | 7.09 | 6.47 | CN(Cc1cnc2nc(N)nc(N)c2n1)c1ccc(C(=O)NCCCC(=O)NC(CCC(=O)O)C(=O)O)cc1 (stereo unspecified)
4.54 | 4.4 | 6.51 | 6.89 | CN(Cc1cnc2nc(N)nc(N)c2n1)c1ccc(C(=O)NCCCC(=O)NCCCC(=O)NCCCC(=O)NC(CCC(=O)O)C(=O)O)cc1 (stereo unspecified)
